Measurements taken from the NIST ThermoML archive (doi:10.1016/j.jct.2013.04.021).

Test: xn = mol fraction of the nth substance listed
Conditions: 101 kPa, Liquid; for mass density: Vibrating tube method; for speed of sound: fixed-path interferometer; for viscosity: Capillary tube (Ostwald / Ubbelohde) method

CCCCOCCO [2-butoxyethan-1-ol] + CCCCCCCCO
Conditions	mass density, 293.15 K [kg/m3]	mass density, 298.15 K [kg/m3]	mass density, 303.15 K [kg/m3]	speed of sound, 293.15 K [m/s]	speed of sound, 298.15 K [m/s]	viscosity, 298.15 K [mPa·s]	viscosity, 303.15 K [mPa·s]
x1 = 0.053	828.488	825.018	821.521	1361.8	1344.8	6.97	5.789
x1 = 0.1049	–	–	–	–	–	6.636	5.499
x1 = 0.105	831.623	828.108	824.6	1359	1342.1	–	–
x1 = 0.167	835.443	831.899	828.337	1355.4	1338.4	6.076	5.128
x1 = 0.2004	837.529	833.978	830.387	1353.2	1336.4	5.882	4.946
x1 = 0.2561	841.092	837.535	833.89	1350.3	1333.4	5.471	4.656
x1 = 0.3039	844.242	840.656	836.962	1347.8	1330.9	5.254	4.44
x1 = 0.4046	851.133	847.482	843.721	1342.7	1325.9	4.678	4.001
x1 = 0.5013	858.109	854.363	–	1338.2	1321.3	4.286	3.647
x1 = 0.6004	865.629	861.773	–	1334	1316.9	3.885	3.31
x1 = 0.7009	873.666	869.705	–	1330.3	1313.2	3.588	3.045
x1 = 0.8027	882.262	878.21	–	1327	1310	3.287	2.825
x1 = 0.852	886.596	882.514	–	1325.6	1308.5	3.165	2.734
x1 = 0.9007	891.001	886.89	–	1324.4	1307.5	3.04	2.661
x1 = 0.9512	895.736	891.594	–	1323.4	1306.5	2.901	2.636
